Consider 36 molecules from a melting point compilation (Tetko et al.; mined from patent text by program, amines drawn as free bases though some values may be those of a salt).

For `CCC(C)OC(=O)CCC(S)(C#N)C1=NCCc2cc(OC)c(OC)cc21` (stereo unspecified), the melting point (commonly the temperature of the solid-liquid transition) is 120 °C.

Turning to `O=C(O)CCN(O)CCC(=O)O`, the melting point was 148 to 149 °C. For the molecule `CCCNC1CN(C(=O)Nc2ccc(C(F)(F)F)cc2)N=C1c1ccc(OC(F)F)c(C)c1` (stereo unspecified), the melting point lay in the range of 90 to 92 °C.

Molecule `C#Cc1ccc(Cn2cc(-c3ccc(OC)cc3)ccc2=O)cn1` had a melting point of 273 °C.

As to `COc1cccc(-c2[nH]c(-c3ccc(N)cc3)nc2C(=O)Nc2nccs2)c1`, the melting point is 262 to 263 °C.

For `Cc1ccc(C(NC(c2ccccc2)c2ccccc2)P(O)O)cc1` (stereo unspecified), the melting point lay in the range of 208 to 209 °C. As for `CC(=O)Nc1ccc(C(=O)O)c2c1OCCO2`, the figure is 233 °C; as for `CS(=O)(=O)c1ccc(-c2oc(CCCC(=O)O)nc2-c2ccc(F)cc2)cc1`, 140 to 141 °C.

In the case of `Cc1[nH]n(Cc2cccc(C(=O)O)c2)c2nc(-c3ccncc3)nc(=O)c1-2`, the melting point is > 300 °C. As for `CCCCNc1nc2ccccc2n2ncc(C(=O)OCC)c12`, the figure is 96 °C; as for `O=C(O)CCOCCCc1ccnc(-c2nc(=O)c3ccccc3s2)c1`, 154 °C. The value for `CCOC(=O)c1cnc2c(OC)cccc2c1Nc1cscc1C` was 162 to 164 °C.

Molecule `O=C1CCN(Cc2cccnc2)C(=O)C1` gave a melting point of 55 to 60 °C. As for `CC(C)Oc1ccc(C(=O)c2[nH]c3cc(Cl)ccc3c2CC(=O)O)cc1`, the figure is 216 to 218 °C; as for `CN(C)CC(=Cc1ccc(/C=C/C(=O)O)cc1)O[Si](C)(C)C(C)(C)C`, 207 °C; as for `O=C(Nc1nc(C(F)(F)F)c(I)s1)c1c(Cl)cccc1Cl`, 157 to 159 °C. Molecule `CC(C)C[C@H](NC(=O)OCc1ccccc1)C(=O)N[C@@H](Cc1ccccc1)C(=O)CSCc1ccc(Cl)s1` came in with a melting point of 105 to 107 °C. As for `N#Cc1ncc(Br)cc1Br`, the melting point was in the range of 109 to 112 °C. The value for `N#CC(C(=O)CBr)c1cccc(Cl)c1` (stereo unspecified) was 124 to 132 °C; that for `O=C(CCCC(=O)N1C(=O)OC[C@@H]1Cc1ccccc1)c1ccc(F)cc1` was 114 °C. In the case of `O=C(NCc1ccc(Cl)cc1)c1cnc2c(F)cc(CCCCCO)cc2c1O`, the melting point was in the range of 193 to 195 °C.

`Cn1c(=O)c2c(nc(Cl)n2Cc2ccccc2Br)n(C)c1=O` returned a melting point of 165 to 167 °C.

Molecule `N#Cc1cc(-c2ccc(Cl)cc2)cnc1N` registered a melting point of 202 to 204 °C. As for `CON(C)Cc1nc2c(N)nc3ccccc3c2n1CC(C)(C)O`, the figure is 220 to 222 °C; as for `CC1(C)CC(=O)c2cc(OCC(F)(F)F)c(OCC(F)(F)F)cc2O1`, 92 to 93 °C; as for `CCOC(=O)CC(O)CC(O)C=Cc1c(C(C)C)oc(-c2ccccc2)c1-c1ccc(F)cc1` (stereo unspecified), 98 to 100 °C. As for `CCCc1c(OCCCC#CC(=O)NCCCCc2cccnc2)ccc(C(C)=O)c1O`, the figure is 84 to 86 °C. The molecule `COc1ccc2cc(C(C)COS(N)(=O)=O)ccc2c1` (stereo unspecified) displayed a melting point of 112 to 115 °C. `COCCc1ccc(OCC(O)CNCCNC(=O)C2CCCOC2)cc1` (stereo unspecified) returned a melting point of 107 to 108 °C.

In turn, `O=S(=O)(Cl)c1ccc2c(c1)oc1ccccc12` yielded a melting point of 142 to 144 °C. The value for `CSc1nc(C)c(Cc2ccccc2)c(=O)[nH]1` was 220 to 222 °C; that for `COc1cc2c(cc1OC)CN(C(=O)Cc1ccc([N+](=O)[O-])cc1)CC2` was 110 to 111 °C; that for `CN1C(=O)NCc2cc(Br)cnc21` was 216 to 217 °C. The value for `Cc1ccc([C@@H](C)NCc2ccc(O)cc2)cc1` was 114 to 116 °C; that for `CON(c1ccc([N+](=O)[O-])cc1F)S(=O)(=O)c1ccc(Cl)c(C(F)(F)F)c1` was 104 to 106 °C.

Consider `CCOC(CC)=NS(=O)(=O)c1nc(-c2ccccc2)ns1`, for which the melting point was in the range of 98 to 100 °C.
